Key:
FGFR1 = molecular target: T1, FGFR1 (Homo sapiens, UniProt P11362); test: Kinase binding assay (Kd), FGFR1; settings: 11-point 3-fold dilution, qPCR readout
T1 construct: made in house; host or cells: E. coli host derived from BL21, infected with T7 phage
Procedure, shortened: (§1)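 Affinity-bead displacement format: kinase-tagged T7 phage, biotinylated ligand on streptavidin beads, test compound in 20% SeaBlock/0.17× PBS/6 mM DTT, 1 h RT. Eluted kinase quantified by qPCR; Kd derived by non-linear least-squares Hill fitting.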

[1] = test system: SNU-16 cells (Gastric Carcinoma, FGFR2 amplification); test: Cancer cell line cell viability assay, SNU-16; format: cell-based; settings: Homo sapiens, 72 hours, Cell Titer-Glo 2.0, read-out: Cancer Cell Viability Assays SNU-16 (IC50 nM)
Source text: (§2) [table] To detect the change of intracellular ATP by Cell Titer-Glo® and to evaluate the inhibitory effect of the compounds on cancer cell lines by determining the in vitro IC50 value of the compounds. Cell Titer-Glo® 2.0 Luminescent cell viability assay reagent was purchased from Promega (Madison, Wis.). RT112/84, SNU-16, and KG-1 cell lines were purchased from American Type Culture Collection (Manassas, Va.). UM-UC-14 cell line was purchased from Sigma (St. Louis, Mo.). RT112/84, UM-UC-14, SNU-16, and KG-1 cells were cultured in RPMI1640 media supplemented with 10% fetal bovine serum. Cultures were maintained at 37° C. in a humidified atmosphere of 5% CO2 and 95% air. Cell Viability Assay Procedure: Cells were plated in 96-well clear bottom/white plates (Corning #3903) at 10,000 cells/well in 100 μl of media, incubated overnight. The next day, test compound DMSO stock solutions were made at 10 mM and 2 μM final concentration. Compounds were then added to cells in a 9-dose, […] dilution series starting at 30 μM with an HP 300e Digital Dispenser (each dose was applied in triplicate). DMSO was backfilled to each well up to 301 nL total volume of test compound+DMSO, and a total of 301 nL DMSO was added to a control/no test compound well in triplicate. The cells in cell culture plates were incubated with the compounds at 37° C. and 5% CO2 for 72 hours. Then 50 μl of Cell Titer Glo 2.0 reagent was added to each well of the cell culture plates. The contents were covered from light and mixed on an orbital shaker at room temperature for 10 min. Luminescence was recorded by a Synergy H1 Microplate Reader (Biotek, Winooski, Vt.). Cells were assessed as a percentage of DMSO only treated control cells. Curves were plotted and IC50 values were calculated using the GraphPad Prism 8 program based on a sigmoidal dose-response equation (4 parameter).

FGFR3 = molecular target: T2, FGFR3 (Homo sapiens, UniProt P22607); test: Kinase binding assay (Kd), FGFR3; settings: 11-point 3-fold dilution, qPCR readout
T2 construct: made in house; host or cells: E. coli host derived from BL21, infected with T7 phage
Procedure, shortened: as §1

[2] = test system: RT112/84 cells (Bladder Cancer, FGFR3-TACC3 fusion); test: Cancer cell line cell viability assay, RT112/84; format: cell-based; settings: Homo sapiens, 72 hours, Cell Titer-Glo 2.0, read-out: Cancer Cell Viability Assays RT112/84 (IC50 nM)
Source text: as §2

FGFR4 = molecular target: T3, FGFR4 (Homo sapiens, UniProt P22455); test: Kinase binding assay (Kd), FGFR4; settings: 11-point 3-fold dilution, qPCR readout
T3 construct: made in house; host or cells: E. coli host derived from BL21, infected with T7 phage
Procedure, shortened: as §1

FGFR2 = molecular target: T4, FGFR2 (Homo sapiens, UniProt P21802); test: Kinase binding assay (Kd), FGFR2; settings: 11-point 3-fold dilution, qPCR readout
T4 construct: made in house; host or cells: E. coli host derived from BL21, infected with T7 phage
Procedure, shortened: as §1

FGFR1-BCR Ba/F3 cells = molecular target: T5, FGFR1-BCR Ba/F3 cells (Homo sapiens, UniProt P11362); test: Ba/F3 cell viability assay, FGFR1; format: cell-based; settings: FGFR1-BCR Ba/F3, 48 hours, Cell Titer-Glo 2.0; read-out: Ba/F3 Cells FGFR1 (IC50 nM)
T5 construct: Ba/F3 FGFR1; FGFR1-BCR; Advanced Cellular Dynamics, (Seattle, WA); fused on or other part: P11274 (Breakpoint cluster region protein)
Source text: (§3) Experimental Purpose: Recombinant kinase fusions are transduced into parental Ba/F3, which becomes dependent upon this constitutive kinase activity for IL3-independent survival. Inhibition of kinase activity leads to cell death, which is monitored using CellTiter-Glo® 2.0 (Promega) which measures intracellular ATP concentration that in turn serves as a marker for viability. FGFR1-BCR Ba/F3 and FGFR3-BAIAP2L1 Ba/F3 were obtained from Advanced Cellular Dynamics (Seattle, Wash.)
(§4) Cell Viability Assay Procedure: Cell Titer-Glo® 2.0 Luminescent cell viability assay reagent was purchased from Promega (Madison, Wis.). FGFR1-BCR Ba/F3 and FGFR3-BAIAP2L1 Ba/F3 cells were cultured in RPMI1640 media supplemented with 10% fetal bovine serum. Cultures were maintained at 37° C. in a humidified atmosphere of 5% CO2 and 95% air.
(§5) Cells were plated in 96-well clear bottom/white plates (Corning #3903) at 10,000 cells/well in 100 μl of media, incubated overnight. The next day, test compound DMSO stock solutions were made at 10 mM and 2 μM final concentration. Compounds were then added to cells in a 9-dose, 10-fold dilution series starting at 30 μM with an HP 300e Digital Dispenser (each dose was applied in triplicate). DMSO was backfilled to each well up to 301 nL total volume of test compound+DMSO, and a total of 301 nL DMSO was added to a control/no test compound well in triplicate. The cells in cell culture plates were incubated with the compounds at 37° C. and 5% CO2 for 48 hours. Then 50 μl of Cell Titer Glo 2.0 reagent was added to each well of the cell culture plates. The contents were covered from light and mixed on an orbital shaker at room temperature for 10 min. Luminescence was recorded by a Synergy H1 Microplate Reader (Biotek, Winooski, Vt.). Cells were assessed as a percentage of DMSO only treated control cells. Curves were plotted and IC50 values were calculated using the GraphPad Prism 8 program based on a sigmoidal dose-response equation (4 parameter).

[3] = molecular target: T6, FGFR3-BAIAP2L1 Ba/F3 cells (Homo sapiens, UniProt P22607); test: Ba/F3 cell viability assay, FGFR3; format: cell-based; settings: FGFR3-BAIAP2L1 fusion Ba/F3, 48 hours, Cell Titer-Glo 2.0; read-out: Ba/F3 Cells FGFR3 (IC50 nM)
T6 construct: Ba/F3 FGFR3; FGFR3--BAIAP2L1 fusion; Advanced Cellular Dynamics, (Seattle, WA); fused on or other part: Q9UHR4 (BAR/IMD domain-containing adapter protein 2-like 1)
Source text: as §3, §4, §5

FGFR3 (V555M) = molecular target: T7, FGFR3 (V555M) (Homo sapiens, UniProt P22607, V555M); test: Kinase binding assay (Kd), FGFR3 (V555M); settings: 11-point 3-fold dilution, qPCR readout
T7 construct: made in house; host or cells: E. coli host derived from BL21, infected with T7 phage
Procedure, shortened: as §1

T3 sequence (P22455 22-802): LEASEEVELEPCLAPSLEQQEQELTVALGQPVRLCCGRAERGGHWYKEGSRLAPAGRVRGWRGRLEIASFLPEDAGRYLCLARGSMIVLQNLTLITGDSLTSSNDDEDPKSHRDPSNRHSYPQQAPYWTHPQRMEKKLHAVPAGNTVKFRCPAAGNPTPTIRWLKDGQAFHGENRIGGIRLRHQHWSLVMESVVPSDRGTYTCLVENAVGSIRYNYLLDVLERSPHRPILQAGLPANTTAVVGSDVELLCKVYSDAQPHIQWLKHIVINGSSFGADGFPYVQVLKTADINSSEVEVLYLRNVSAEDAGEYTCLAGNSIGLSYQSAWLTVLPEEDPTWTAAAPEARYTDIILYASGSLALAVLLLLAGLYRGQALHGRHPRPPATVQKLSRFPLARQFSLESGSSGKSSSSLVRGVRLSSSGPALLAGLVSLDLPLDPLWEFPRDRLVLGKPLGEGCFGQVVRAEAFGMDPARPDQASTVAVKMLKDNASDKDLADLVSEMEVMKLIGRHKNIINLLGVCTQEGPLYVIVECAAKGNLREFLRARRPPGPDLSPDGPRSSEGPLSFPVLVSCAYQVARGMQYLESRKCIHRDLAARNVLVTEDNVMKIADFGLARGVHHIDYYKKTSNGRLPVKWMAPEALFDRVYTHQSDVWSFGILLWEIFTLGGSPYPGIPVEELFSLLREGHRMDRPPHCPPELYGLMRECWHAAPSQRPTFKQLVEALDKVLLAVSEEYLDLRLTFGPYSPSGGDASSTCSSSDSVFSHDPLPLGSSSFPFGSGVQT
T6 sequence (P22607 whole entry, change not shown, the tested form may be a part): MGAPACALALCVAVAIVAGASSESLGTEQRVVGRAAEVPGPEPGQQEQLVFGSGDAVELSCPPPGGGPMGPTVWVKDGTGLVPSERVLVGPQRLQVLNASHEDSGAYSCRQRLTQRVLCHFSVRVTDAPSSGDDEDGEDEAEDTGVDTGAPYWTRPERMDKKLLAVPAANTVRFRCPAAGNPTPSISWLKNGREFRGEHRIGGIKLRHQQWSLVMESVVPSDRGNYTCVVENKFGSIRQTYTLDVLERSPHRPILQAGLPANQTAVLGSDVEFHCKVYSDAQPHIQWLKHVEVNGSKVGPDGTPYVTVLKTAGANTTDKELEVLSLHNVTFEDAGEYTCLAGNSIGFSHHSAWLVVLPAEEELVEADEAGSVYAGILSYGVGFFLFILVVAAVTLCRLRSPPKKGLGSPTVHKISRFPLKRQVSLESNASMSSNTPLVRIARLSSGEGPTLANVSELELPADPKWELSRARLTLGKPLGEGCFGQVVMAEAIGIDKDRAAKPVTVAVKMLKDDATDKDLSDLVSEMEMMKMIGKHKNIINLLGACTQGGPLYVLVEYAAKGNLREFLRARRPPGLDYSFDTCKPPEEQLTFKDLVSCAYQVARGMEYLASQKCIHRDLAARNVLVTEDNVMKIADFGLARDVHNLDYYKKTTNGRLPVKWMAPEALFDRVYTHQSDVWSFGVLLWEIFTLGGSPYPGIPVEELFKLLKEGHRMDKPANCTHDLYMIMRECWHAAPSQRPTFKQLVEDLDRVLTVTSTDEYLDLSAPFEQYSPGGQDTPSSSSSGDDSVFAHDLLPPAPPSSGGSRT
T1 sequence (P11362 22-822): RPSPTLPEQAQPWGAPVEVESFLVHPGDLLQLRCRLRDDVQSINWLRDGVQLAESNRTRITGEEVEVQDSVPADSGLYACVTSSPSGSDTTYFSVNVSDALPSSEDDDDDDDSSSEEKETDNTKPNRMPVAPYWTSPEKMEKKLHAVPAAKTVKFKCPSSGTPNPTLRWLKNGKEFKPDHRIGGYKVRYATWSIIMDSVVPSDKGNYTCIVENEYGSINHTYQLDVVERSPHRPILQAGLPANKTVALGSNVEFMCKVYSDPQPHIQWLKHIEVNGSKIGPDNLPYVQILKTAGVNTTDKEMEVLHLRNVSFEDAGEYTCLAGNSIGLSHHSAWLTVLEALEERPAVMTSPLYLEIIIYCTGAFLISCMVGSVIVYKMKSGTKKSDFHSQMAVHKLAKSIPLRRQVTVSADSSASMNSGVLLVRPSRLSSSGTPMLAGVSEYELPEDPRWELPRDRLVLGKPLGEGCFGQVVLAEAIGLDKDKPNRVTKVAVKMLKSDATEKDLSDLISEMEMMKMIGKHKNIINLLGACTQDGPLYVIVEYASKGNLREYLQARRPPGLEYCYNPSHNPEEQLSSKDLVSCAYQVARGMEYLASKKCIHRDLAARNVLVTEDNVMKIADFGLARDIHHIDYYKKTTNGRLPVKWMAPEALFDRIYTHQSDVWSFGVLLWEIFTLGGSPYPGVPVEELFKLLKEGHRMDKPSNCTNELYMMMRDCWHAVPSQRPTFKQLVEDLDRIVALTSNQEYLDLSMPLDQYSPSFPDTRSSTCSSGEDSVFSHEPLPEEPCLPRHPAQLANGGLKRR
T5 sequence (P11362 whole entry, change not shown, the tested form may be a part): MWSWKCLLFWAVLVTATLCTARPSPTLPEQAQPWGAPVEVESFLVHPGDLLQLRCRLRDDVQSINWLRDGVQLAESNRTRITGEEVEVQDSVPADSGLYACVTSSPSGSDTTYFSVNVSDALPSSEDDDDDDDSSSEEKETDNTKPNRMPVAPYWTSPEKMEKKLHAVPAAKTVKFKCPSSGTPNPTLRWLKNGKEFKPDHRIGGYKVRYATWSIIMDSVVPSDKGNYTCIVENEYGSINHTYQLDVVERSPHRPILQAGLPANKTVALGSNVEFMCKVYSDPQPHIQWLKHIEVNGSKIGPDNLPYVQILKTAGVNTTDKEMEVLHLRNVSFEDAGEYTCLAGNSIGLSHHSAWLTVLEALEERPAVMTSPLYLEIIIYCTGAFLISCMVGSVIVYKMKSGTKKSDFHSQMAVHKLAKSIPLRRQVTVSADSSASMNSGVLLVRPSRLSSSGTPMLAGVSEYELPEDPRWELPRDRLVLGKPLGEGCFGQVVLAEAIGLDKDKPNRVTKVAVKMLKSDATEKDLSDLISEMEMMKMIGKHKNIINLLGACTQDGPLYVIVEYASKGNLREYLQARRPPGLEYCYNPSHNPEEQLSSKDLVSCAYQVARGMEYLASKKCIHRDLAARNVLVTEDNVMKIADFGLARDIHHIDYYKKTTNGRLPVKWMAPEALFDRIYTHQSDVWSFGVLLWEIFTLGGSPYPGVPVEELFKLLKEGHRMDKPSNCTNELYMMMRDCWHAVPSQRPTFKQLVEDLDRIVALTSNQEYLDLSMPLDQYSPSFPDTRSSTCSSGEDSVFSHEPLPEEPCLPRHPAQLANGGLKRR
T2 sequence (P22607 23-806): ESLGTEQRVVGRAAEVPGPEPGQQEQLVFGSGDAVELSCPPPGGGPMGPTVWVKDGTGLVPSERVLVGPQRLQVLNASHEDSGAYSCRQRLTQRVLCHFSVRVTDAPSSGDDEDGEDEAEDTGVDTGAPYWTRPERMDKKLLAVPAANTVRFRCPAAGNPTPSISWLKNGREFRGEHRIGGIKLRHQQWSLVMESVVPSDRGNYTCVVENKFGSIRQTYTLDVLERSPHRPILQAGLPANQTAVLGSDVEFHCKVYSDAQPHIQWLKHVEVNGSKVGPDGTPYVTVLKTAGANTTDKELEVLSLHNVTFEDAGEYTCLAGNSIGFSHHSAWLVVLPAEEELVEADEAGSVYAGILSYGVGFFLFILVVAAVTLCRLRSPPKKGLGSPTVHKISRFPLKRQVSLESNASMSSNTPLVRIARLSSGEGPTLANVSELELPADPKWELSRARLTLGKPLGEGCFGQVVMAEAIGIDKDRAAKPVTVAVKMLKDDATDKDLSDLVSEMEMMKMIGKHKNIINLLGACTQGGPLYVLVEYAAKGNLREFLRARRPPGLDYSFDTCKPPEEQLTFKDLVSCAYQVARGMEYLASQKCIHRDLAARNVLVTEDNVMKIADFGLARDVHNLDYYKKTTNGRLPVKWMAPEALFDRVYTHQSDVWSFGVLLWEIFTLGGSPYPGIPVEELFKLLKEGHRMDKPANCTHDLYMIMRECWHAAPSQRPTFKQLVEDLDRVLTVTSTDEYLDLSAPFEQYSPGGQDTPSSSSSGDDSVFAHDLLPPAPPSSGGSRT
T7 sequence (P22607 23-806 V555M): as the sequence (P22607 23-806) above, with V533M counted along it
T4 sequence (P21802 22-821): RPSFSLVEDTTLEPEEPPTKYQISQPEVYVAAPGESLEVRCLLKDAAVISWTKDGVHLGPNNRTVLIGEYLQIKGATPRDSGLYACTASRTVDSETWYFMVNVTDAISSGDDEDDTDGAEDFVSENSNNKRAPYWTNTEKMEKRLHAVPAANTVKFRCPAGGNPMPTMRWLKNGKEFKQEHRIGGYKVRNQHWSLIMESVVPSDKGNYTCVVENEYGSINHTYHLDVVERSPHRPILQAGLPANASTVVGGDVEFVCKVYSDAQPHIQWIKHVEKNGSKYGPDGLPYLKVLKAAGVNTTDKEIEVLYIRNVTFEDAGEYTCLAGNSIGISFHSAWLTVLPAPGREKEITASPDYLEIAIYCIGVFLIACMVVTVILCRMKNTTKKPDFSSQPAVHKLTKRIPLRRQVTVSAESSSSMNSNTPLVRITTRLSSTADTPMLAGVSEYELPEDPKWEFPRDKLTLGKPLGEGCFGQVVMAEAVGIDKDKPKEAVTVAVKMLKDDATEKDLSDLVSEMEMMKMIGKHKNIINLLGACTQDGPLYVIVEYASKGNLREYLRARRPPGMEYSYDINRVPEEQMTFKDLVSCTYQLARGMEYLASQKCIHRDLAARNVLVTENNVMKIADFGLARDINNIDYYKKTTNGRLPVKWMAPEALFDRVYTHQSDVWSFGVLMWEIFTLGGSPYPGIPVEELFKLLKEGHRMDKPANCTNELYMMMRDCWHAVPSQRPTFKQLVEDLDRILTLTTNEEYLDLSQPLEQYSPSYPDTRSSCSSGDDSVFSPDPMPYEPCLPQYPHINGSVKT

SMILES: Cc1cnc(Nc2ccc(N=S(C)(C)=O)c(OCCN3CCOCC3)c2)nc1-c1c[nH]c2ccccc12 [Example 27, N-[4-[[dimethyl(oxo)-λ^6-sulfanylidene]amino]-3-(2-morpholinoethoxy)phenyl]-4-(1H-indol-3-yl)-5-methyl-pyrimidin-2-amine]
- Kd (FGFR1): 2 nM
- IC50 [1]: 16 nM
- Kd (FGFR3): 2 nM
- IC50 [2]: 43 nM
- Kd (FGFR4): 110 nM
- Kd (FGFR2): 1 nM
- GI50 (FGFR1-BCR Ba/F3 cells): 11 nM

SMILES: COc1cc(Nc2ncc(C)c(-c3c[nH]c4ccccc34)n2)ccc1N=S(C)(C)=O [Example 26, N-[4-[[dimethyl(oxo)-λ^6-sulfanylidene]amino]-3-methoxy-phenyl]-4-(1H-indol-3-yl)-5-methyl-pyrimidin-2-amine]
- Kd (FGFR1): 42 nM
- IC50 [1]: 173 nM
- Kd (FGFR3): 10 nM
- GI50 [3]: 15 nM
- Kd (FGFR3 (V555M)): 1 nM
- IC50 [2]: 111 nM
- Kd (FGFR4): 91 nM
- Kd (FGFR2): 2 nM
- GI50 (FGFR1-BCR Ba/F3 cells): 75 nM

SMILES: Cc1cnc(Nc2ccc(N=S(C)(C)=O)cc2)nc1-c1c[nH]c2ccccc12 [Example 11, N-[4-[[dimethyl(oxo)-λ^6-sulfanylidene]amino]phenyl]-4-(1H-indol-3-yl)-5-methyl-pyrimidin-2-amine]
- Kd (FGFR1): 350 nM
- IC50 [1]: 108 nM
- Kd (FGFR3): 370 nM
- GI50 [3]: 15 nM
- Kd (FGFR3 (V555M)): 57 nM
- IC50 [2]: 153 nM
- Kd (FGFR4): 57 nM
- Kd (FGFR2): 3300 nM
- GI50 (FGFR1-BCR Ba/F3 cells): 115 nM

SMILES: COc1cc(Nc2ncc(C)c(-c3c[nH]c4c(C)cccc34)n2)ccc1N=S(C)(C)=O [Example 31, N-[4-[[dimethyl(oxo)-λ^6-sulfanylidene]amino]-3-methoxy-phenyl]-5-methyl-4-(7-methyl-1H-indol-3-yl)pyrimidin-2-amine]
- Kd (FGFR1): 1 nM
- IC50 [1]: 5 nM
- Kd (FGFR3): 5 nM
- GI50 [3]: 40 nM
- Kd (FGFR3 (V555M)): 0.5 nM
- IC50 [2]: 23 nM
- Kd (FGFR4): 62 nM
- Kd (FGFR2): 3 nM
- GI50 (FGFR1-BCR Ba/F3 cells): 2 nM

SMILES: C=CC(=O)Nc1ccc2c(-c3nc(Nc4ccc(N=S(C)(C)=O)nc4)ncc3Cl)cn(C)c2c1 [Example 94, N-[3-[5-Chloro-2-[[6-[[dimethyl(oxo)-λ^6-sulfanylidene]amino]-3-pyridyl]amino]pyrimidin-4-yl]-1-methyl-indol-6-yl]prop-2-enamide]
- GI50 [3]: 23 nM
- GI50 (FGFR1-BCR Ba/F3 cells): 4 nM

SMILES: C=CC(=O)Nc1ccc2c(-c3nc(Nc4ccc(N=S(C)(C)=O)c(F)c4)ncc3Cl)cn(C)c2c1 [Example 93, N-[3-[5-Chloro-2-[4-[[dimethyl(oxo)-λ^6-sulfanylidene]amino]-3-fluoro-anilino]pyrimidin-4-yl]-1-methyl-indol-6-yl]prop-2-enamide]
- GI50 [3]: 14 nM
- GI50 (FGFR1-BCR Ba/F3 cells): 1 nM

SMILES: C=CC(=O)Nc1cc2ccn(-c3nc(Nc4ccc(N=S(C)(C)=O)cc4)ncc3Cl)c2cc1C [Example 85, N-[1-[5-chloro-2-[4-[[dimethyl(oxo)-λ^6-sulfanylidene]amino]anilino]-pyrimidin-4-yl]-6-methyl-indol-5-yl]prop-2-enamide]
- Kd (FGFR1): 330 nM
- Kd (FGFR3): 180 nM
- GI50 [3]: 459 nM
- Kd (FGFR3 (V555M)): 16 nM
- Kd (FGFR4): 2300 nM
- Kd (FGFR2): 89 nM
- GI50 (FGFR1-BCR Ba/F3 cells): 171 nM

Reference: patent publication US20230115945A1, “AMINOPYRIMIDINE COMPOUNDS” (TYRA BIOSCIENCES, INC., priority 2019, published 2023)
